This is an account of results in patent publication US20190293657A1, “PEPTIDE, FLUORESCENT PROBE COMPRISING THE SAME, AND PREPARATION METHOD THEREOF” (Singulprobe Nanjing Biotechnology Co., Ltd, priority 2017, published 2019).

For this test, the system named is lysosome (U2OS cells). The test is described as follows: Structural illumination microscopy (N-SIM) super-resolution imaging of lysosomes. The format is cell-based. The settings on record: FIG. 8. From the text:
Super-resolution imaging by structural illumination microscopy: super-resolution microscope N-SIM (Nikon, Japan) was employed. The maximum excitation wavelength of Alexa Fluor 647 was 650 nm and the maximum emission wavelength was 665 nm; the maximum excitation wavelength of LysoTracker Red was 577 nm and the maximum emission wavelength of LysoTracker Red was 590 nm; the maximum excitation wavelength of Atto 565 was 563 nm and the maximum emission wavelength of Atto 565 was 592 nm; the maximum excitation wavelength of Atto 488 was 501 nm and the maximum emission wavelength was 523 nm. A sample was photographed using a 2D-SIM mode, one SIM result was calculated from 9 original images (three angles, three phases), and the exposure time of each original image was 30 ms. Considering quick movement ability of a lysosome in living cells, single-color imaging interval time was set as 1 s so as to continuously photograph cells at above 300 frames. After the capturing was completed, the average time interval among various SIM images was about 1.15 s. […]
Based on a time-lapsed SIM imaging, take the center of the lysosome as a reference, the coordinates of lysosomes were recorded using ImageJ software, and trace charts of 101 lysosomes in four U2OS cells on the confocal surface were drawn using MATLAB (FIGS. 6A-6H). […]

Structures are written as SMILES.

Take `CN(C)CCNC(=O)CCc1ccc2n1[B-](F)(F)[N+]1=C(c3ccc[nH]3)C=CC1=C2` [LysoTracker Red]: the “background in structural illumination super-resolution imaging” value is “uneven background of LysoTracker Red was very obvious”.
